pIC50: −log10 of the molar value.
How the values were obtained:
[1] = target: T1, Type-2 angiotensin II receptor (Rattus norvegicus, UniProt P35351); experiment: Inhibition of Angiotensin II receptor, type 2 in rat midbrain using [125I]-Sar1,Ile8 angiotensin II binding assay
T1 sequence (P35351 whole entry): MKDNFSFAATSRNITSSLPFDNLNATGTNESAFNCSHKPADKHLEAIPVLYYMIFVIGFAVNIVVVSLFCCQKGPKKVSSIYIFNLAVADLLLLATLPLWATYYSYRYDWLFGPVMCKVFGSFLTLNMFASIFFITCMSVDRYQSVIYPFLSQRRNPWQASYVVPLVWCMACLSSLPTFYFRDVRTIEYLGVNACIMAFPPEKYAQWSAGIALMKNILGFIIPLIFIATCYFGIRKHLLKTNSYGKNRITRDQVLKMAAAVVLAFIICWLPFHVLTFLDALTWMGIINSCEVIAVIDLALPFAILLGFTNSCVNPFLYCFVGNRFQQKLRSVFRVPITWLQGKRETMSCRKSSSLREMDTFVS

[2] = target: T2, Type-1 angiotensin II receptor (Oryctolagus cuniculus, UniProt P34976); experiment: Inhibition of Angiotensin II receptor, type 1 in rabbit aorta using [125I-Sar1,Ile8] angiotensin II binding assay; type: tissue-based
T2 sequence (P34976 whole entry): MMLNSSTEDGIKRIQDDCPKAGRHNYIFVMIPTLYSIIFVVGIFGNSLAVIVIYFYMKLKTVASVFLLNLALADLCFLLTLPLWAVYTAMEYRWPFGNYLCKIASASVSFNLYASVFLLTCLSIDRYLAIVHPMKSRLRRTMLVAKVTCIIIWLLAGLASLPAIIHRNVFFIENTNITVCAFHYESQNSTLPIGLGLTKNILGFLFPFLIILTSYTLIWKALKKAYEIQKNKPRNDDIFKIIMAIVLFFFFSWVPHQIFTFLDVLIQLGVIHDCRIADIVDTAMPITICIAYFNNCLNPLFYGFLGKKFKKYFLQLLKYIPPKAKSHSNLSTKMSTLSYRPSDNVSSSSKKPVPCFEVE

[3] = Oral bioavailability in rat; type: ADME, organism-based; conditions: in vivo
[4] = Half life in rats; type: ADME, organism-based; conditions: rat, in vivo
[5] = target: T2, Type-1 angiotensin II receptor; experiment: Inhibition of angiotensin Angiotensin II receptor, type 1 in rabbit aorta using [125I-Sar1,Ile8] angiotensin II binding assay; type: tissue-based
[6] = target: T1, Type-2 angiotensin II receptor; experiment: Compound was evaluated for inhibition of Angiotensin II receptor, type 2 in rat midbrain AT2 assay; type: tissue-based

SMILES: CC(C)N(C(=O)N1CCN(C(=O)N(c2ccccc2)c2ccccc2)[C@H](C(=O)O)C1)C(C)C
- pIC50 [1]: 7.40
- pIC50 [2]: < 5.00

SMILES: O=C(O)[C@@H]1CN(C(=O)N(c2ccccc2)c2ccccc2)CCN1C(=O)N(c1ccccc1)c1ccccc1
- bioavailability [3]: 21%
- half-life [4]: > 6 h
- pIC50 [2]: < 4.00

SMILES: CC1CN(C(=O)N(c2ccccc2)c2ccccc2)CCN1C(=O)N(c1ccccc1)c1ccccc1 (stereo unspecified)
- pIC50 [1]: 7.82
- pIC50 [5]: < 4.00

SMILES: CCCCCN(CCCCC)C(=O)N1CCN(C(=O)N(c2ccccc2)c2ccccc2)[C@H](C(=O)OC)C1
- pIC50 [1]: 7.92
- pIC50 [2]: 4.68

SMILES: CCCCCN(CCCCC)C(=O)N1CCN(C(=O)N(c2ccccc2)c2ccccc2)C[C@H]1C(=O)O
- pIC50 [1]: 7.64
- pIC50 [2]: 4.60

SMILES: O=C(N1CCN(C(=O)N(c2ccccc2)c2ccccc2)CC1)N(c1ccccc1)c1ccccc1
- pIC50 [1]: 7.43
- pIC50 [5]: < 4.00

SMILES: CCCCCN(CCCCC)C(=O)N1CCN(C(=O)C(c2ccccc2)c2ccccc2)C(C(=O)O)C1 (stereo unspecified)
- pIC50 [1]: 8.96
- pIC50 [2]: < 4.00

SMILES: CCCCCN(CCCCC)C(=O)N1CCN(C(=O)N(c2ccccc2)c2cccc(C)c2)[C@H](C(=O)O)C1
- pIC50 [1]: 9.15
- pIC50 [5]: 5.00

SMILES: COc1ccc(Cn2cnc3c2C[C@@H](C(=O)O)N(C(=O)C(c2ccccc2)c2ccccc2)C3)cc1C
- pIC50 [6]: 7.42

SMILES: CCCCCN(CCCCC)C(=O)N1CCN(C(=O)N(c2ccccc2)c2ccccc2)[C@H](CO)C1
- pIC50 [1]: 7.52
- pIC50 [2]: < 5.00

SMILES: CCCCCN(CCCCC)C(=O)N1CCN(C(=O)N(c2ccccc2)c2ccc(O)cc2)[C@H](C(=O)O)C1
- pIC50 [1]: 6.64
- pIC50 [5]: 5.00

SMILES: CCCCCN(CCCCC)C(=O)N1CCN(C(=O)N(c2ccccc2)c2ccccc2)CC1
- pIC50 [1]: 7.15
- pIC50 [5]: 4.90

SMILES: CCCCCN(CCCCC)C(=O)N1CCN(C(=O)N(c2ccccc2)c2ccccc2)[C@@H](C(=O)O)C1
- pIC50 [1]: 8.35
- pIC50 [2]: < 5.00

SMILES: CCCCCN(CCCCC)C(=O)N1CCN(C(=O)N(c2ccccc2)c2cccc(Cl)c2)[C@H](C(=O)O)C1
- pIC50 [1]: 9.40
- pIC50 [5]: 5.29

SMILES: CCCCCN(C(=O)N1CCN(C(=O)N(c2ccccc2)c2ccccc2)C[C@H]1C(=O)O)c1ccccc1
- pIC50 [1]: 7.70
- pIC50 [2]: 4.35

SMILES: CCCCCN(CCCCC)C(=O)N1CCN(C(=O)N(CCCCC)CCCCC)[C@H](C(=O)O)C1
- pIC50 [1]: 7.09
- pIC50 [2]: < 4.52

SMILES: CCCCCN(CCCCC)C(=O)N1CCN(C(=O)N(c2ccccc2)c2ccc(Br)cc2)[C@H](C(=O)O)C1
- pIC50 [1]: 8.57
- pIC50 [5]: 5.27

SMILES: CCCCCN(CCCCC)C(=O)N1CCN(C(=O)N(c2ccccc2)c2ccc(I)cc2)[C@H](C(=O)O)C1
- pIC50 [1]: 8.15
- pIC50 [5]: 5.07

SMILES: CCCCCN(CCCCC)C(=O)N1CCN(C(=O)N(c2ccccc2)c2cccc(OC)c2)[C@H](C(=O)O)C1
- pIC50 [1]: 8.11
- pIC50 [5]: < 5.00

SMILES: CC1CN(C(=O)N(c2ccccc2)c2ccccc2)C(C)CN1C(=O)N(c1ccccc1)c1ccccc1 (stereo unspecified)
- pIC50 [1]: 8.00
- pIC50 [5]: < 4.00

SMILES: CCCCCN(CCCCC)C(=O)N1CCN(C(=O)N(c2ccccc2)c2ccccc2)[C@H](CCO)C1
- pIC50 [1]: 7.82
- pIC50 [5]: < 5.00

SMILES: CCCCCN(CCCCC)C(=O)N1CCN(C(=O)N(c2ccccc2)c2ccccc2)[C@H](C(=O)O)C1
- pIC50 [1]: 8.85
- pIC50 [5]: 4.41

SMILES: CCCCCN(C)C(=O)N1CCN(C(=O)N(c2ccccc2)c2ccccc2)[C@H](C(=O)O)C1
- pIC50 [1]: 7.82
- pIC50 [2]: < 4.52

SMILES: CCCCCN(CCCCC)C(=O)N1CCN(C(=O)N(c2ccccc2)c2ccc(C(=O)OCC)cc2)[C@H](C(=O)O)C1
- pIC50 [1]: 7.46
- pIC50 [5]: < 5.00

SMILES: CCCCCN(CCCCC)C(=O)N1CCN(C(=O)N(c2ccccc2)c2ccc(C(=O)O)cc2)[C@H](C(=O)O)C1
- pIC50 [1]: 6.74
- pIC50 [5]: 5.85

SMILES: CN(C(=O)N1CCN(C(=O)N(c2ccccc2)c2ccccc2)[C@H](C(=O)O)C1)c1ccccc1
- pIC50 [1]: 6.77
- pIC50 [2]: < 5.00

SMILES: CCCCCN(CCCCC)C(=O)N1CCN(C(=O)N(c2ccccc2)c2cccc(Br)c2)[C@H](C(=O)O)C1
- pIC50 [1]: 9.22
- pIC50 [5]: 4.23

SMILES: CCCCCN(CCCCC)C(=O)N1CCN(C(=O)N(c2ccccc2)c2ccccc2)C(C(=O)O)C1 (stereo unspecified)
- pIC50 [1]: 8.77
- pIC50 [2]: < 4.52

— ChEMBL document CHEMBL1127116, “Synthesis and structure-activity relationships of a novel series of non-peptide AT2-selective angiotensin II receptor antagonists” (Bioorg Med Chem Lett, 1993)
